From patent US10188634B2, “3-(3H-imidazo[4,5-C]pyridin-2-yl)-1 H-pyrazolo[4,3-B]pyridines and therapeutic uses thereof” (Samumed, LLC, priority 2015, dated 2019)

What was measured:
[1] = test system: primary human mesenchymal stem cells (hMSCs); assay: Induction of chondrogenesis in primary human mesenchymal stem cells (hMSCs), nodule imaging with Rhodamine B / Nile Red; format: cell-based; details: for Emax: hMSCs chondrogenesis, TGF-β3 (10 ng/mL) as positive control, read-out: Max. Activity as % TGF-β3 activity; for EC50: hMSCs, concentration required to induce 50% levels of chondrogenesis vs TGF-β3 positive control, read-out: Conc (nM) of 50% TGF-β3 activity
Protocol: Representative compounds were screened using primary human mesenchymal stem cells (hMSCs) to determine their ability to induce chondrogenesis (process by which cartilage is developed).
Human Mesenchymal Stem Cell Culture: Primary human mesenchymal stem cells (hMSCs) were purchased from Lonza (Walkersville, Md.) and expanded in Mesenchymal Stem Cell Growth Media (Lonza). Cells between passage 3 and 6 were used for the experiments.
Compound Screening: Each compound was dissolved in DMSO as a 10 mM stock and used to prepare compound source plates. For the 96 well assay, serial dilution (1:3, 6-point dose-response curves from 2700 nM to 10 nM) and compound transfer was performed using the ECHO 550 (Labcyte, Sunnyvale, Calif.) into 96-well clear bottom assay plates (Greiner Bio-One) with appropriate DMSO backfill for a final DMSO concentration of 0.03%. hMSCs were plated at 20,000 cells/well in 250 μL/well Incomplete Chondrogenic Induction Medium (Lonza; DMEM, dexamethasone, ascorbate, insulin-transferrin-selenium [ITS supplement], gentamycin-amphotericin [GA-1000], sodium pyruvate, proline and L-glutamine). TGF-β3 (10 ng/mL) was used as a positive control for differentiation while negative control wells were treated with 75 nL DMSO for normalization and calculating EC50 values. For the 384 well assay, serial dilution (1:3, 8-point dose-response curves from 5000 nM to 2.2 nM) and compound transfer was performed using the ECHO 550 (Labcyte, Sunnyvale, Calif.) into 384-well clear bottom assay plates (Greiner Bio-One) with appropriate DMSO backfill for a final DMSO concentration of 0.03%. hMSCs were plated at 8,000 cells/well in 80 μL/well Incomplete Chondrogenic Induction Medium (Lonza; DMEM, dexamethasone, ascorbate, insulin-transferrin-selenium [ITS supplement], gentamycin-amphotericin [GA-1000], sodium pyruvate, proline and L-glutamine). TGF-β3 (10 ng/mL) was used as a positive control for differentiation while negative control wells were treated with 25 nL DMSO for normalization and calculating EC50 values. Cells were incubated at 37° C. and 5% CO2 for 6 days. To image chondrogenic nodules, the cells were fixed using 4% formaldehyde (Electron Microscopy Sciences), and stained with 2 μg/mL Rhodamine B (Sigma-Aldrich) and 20 μM Nile Red (Sigma-Aldrich) [Johnson K., et.al, A Stem Cell-Based Approach to Cartilage Repair, Science, (2012), 336(6082). 717-721]. The nodules imaged (25 images per well for 96 well plates and 9 images per well for 384 well plates at 10× magnification) by excitation at 531 nm and emission at 625 nm and quantified using the CellInsight CX5 (Thermo Scientific). Area of nodules in each well was normalized to the average of 3 DMSO treated wells on the same plate using Excel (Microsoft Inc.). The normalized averages (fold change over DMSO) of 2 or 3 replicate wells for each compound concentration were calculated. Due to solubility limitations of some of the compounds, curve fitting was incomplete leading to inaccurate EC50 determinations.
Using TGF-β3 as a positive control, the concentration of representative compounds required to induce 50% levels of chondrogenesis is reported. In addition, the maximum activity of each compound and the respective dose that each compound reached maximum chondrogenesis activity is reported.

[2] = test system: Wnt activity (Sp5-Luc reporter, human Sp5 promoter with eight TCF/LEF binding sites) in SW480 colon carcinoma cells; assay: Screening assay for Wnt activity: Sp5-Luc reporter gene assay in SW480 cells; format: cell-based; details: for EC50: 10-point dose-response starting from 10 μM, overnight incubation; for inhibition at 10 µM: read-out: percent inhibition at 10 μM (given for EC50 of >10 μM)
Method in brief: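 Luminescence (BrightGlo) read after overnight 37 °C exposure of Sp5-Luc SW480 reporter cells, 4,000/well in 1% FBS, to compound dosed 1:3 over 10 points from 10 μM with 0.1% DMSO. Values normalized to DMSO-only cells, fitted with variable-slope four-parameter model; where EC50 exceeds 10 μM, % inhibition at 10 μM reported.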

CN(C)c1cncc(-c2ccc3[nH]nc(-c4nc5c(-c6cccc(F)c6)cncc5[nH]4)c3n2)c1 [Compound 7, 5-(3-(7-(3-Fluorophenyl)-3H-imidazo[4,5-c]pyridin-2-yl)-1H-pyrazolo[4,3-b]pyridin-5-yl)-N,N-dimethylpyridin-3-amine]
Emax [1]: 154% | EC50 [1]: 10 nM | EC50 [2]: 638 nM

CN(C)Cc1cncc(-c2ccc3[nH]nc(-c4nc5c(-c6cccc(F)c6)cncc5[nH]4)c3n2)c1 [Compound 13, 1-(5-(3-(7-(3-Fluorophenyl)-3H-imidazo[4,5-c]pyridin-2-yl)-1H-pyrazolo[4,3-b]pyridin-5-yl)pyridin-3-yl)-N,N-dimethylmethanamine]
Emax [1]: 17% | EC50 [2]: 1100 nM

O=C(Nc1cncc(-c2ccc3[nH]nc(-c4nc5c(-c6cccc(F)c6)cncc5[nH]4)c3n2)c1)C1CC1 [Compound 20, N-(5-(3-(7-(3-Fluorophenyl)-3H-imidazo[4,5-c]pyridin-2-yl)-1H-pyrazolo[4,3-b]pyridin-5-yl)pyridin-3-yl)cyclopropanecarboxamide]
inhibition at 10 µM [2]: 7% | EC50 [2]: > 10000 nM

Fc1cccc(-c2cncc3[nH]c(-c4n[nH]c5ccc(-c6cncc(CN7CCC(F)(F)C7)c6)nc45)nc23)c1 [Compound 26, 5-(5-((3,3-Difluoropyrrolidin-1-yl)methyl)pyridin-3-yl)-3-(7-(3-fluorophenyl)-3H-imidazo[4,5-c]pyridin-2-yl)-1H-pyrazolo[4,3-b]pyridine]
Emax [1]: 47% | EC50 [2]: 1090 nM

CC(C)(C)C(=O)Nc1cncc(-c2ccc3[nH]nc(-c4nc5c(-c6ccc(F)cc6)cncc5[nH]4)c3n2)c1 [Compound 36, N-(5-(3-(7-(4-Fluorophenyl)-3H-imidazo[4,5-c]pyridin-2-yl)-1H-pyrazolo[4,3-b]pyridin-5-yl)pyridin-3-yl)pivalamide]
Emax [1]: 42% | EC50 [2]: 2730 nM

Fc1ccc(-c2cncc3[nH]c(-c4n[nH]c5ccc(-c6cncc(CN7CCCC7)c6)nc45)nc23)cc1 [Compound 42, 3-(7-(4-Fluorophenyl)-3H-imidazo[4,5-c]pyrid-2-yl)-5-(5-(pyrrolidin-1-ylmethyl)pyridin-3-yl)-1H-pyrazolo[4,3-b]pyridine]
Emax [1]: 15% | EC50 [2]: 3350 nM

Fc1ccccc1-c1cncc2[nH]c(-c3n[nH]c4ccc(-c5ccccn5)nc34)nc12 [Compound 84, 3-(7-(2-Fluorophenyl)-3H-imidazo[4,5-c]pyridin-2-yl)-5-(pyridin-2-yl)-1H-pyrazolo[4,3-b]pyridine]
EC50 [2]: 644 nM

CC(C)Nc1cncc(-c2ccc3[nH]nc(-c4nc5c(-c6cccnc6)cncc5[nH]4)c3n2)c1 [Compound 96, N-Isopropyl-5-(3-(7-(pyridin-3-yl)-3H-imidazo[4,5-c]pyridin-2-yl)-1H-pyrazolo[4,3-b]pyridin-5-yl)pyridin-3-amine]
Emax [1]: 65% | EC50 [1]: 30 nM | EC50 [2]: 1350 nM

CN(C)c1cncc(-c2ccc3[nH]nc(-c4nc5c(N6CCCCC6)cncc5[nH]4)c3n2)c1 [Compound 175, N,N-dimethyl-5-(3-(7-(piperidin-1-yl)-3H-imidazo[4,5-c]pyridin-2-yl)-1H-pyrazolo[4,3-b]pyridin-5-yl)pyridin-3-amine]
Emax [1]: 67% | EC50 [1]: 100 nM | EC50 [2]: 3970 nM

Cc1ccncc1-c1ccc2[nH]nc(-c3nc4c(-c5ccsc5)cncc4[nH]3)c2n1 [Compound 257, 5-(4-Methylpyridin-3-yl)-3-(7-(thiophen-3-yl)-3H-imidazo[4,5-c]pyridin-2-yl)-1H-pyrazolo[4,3-b]pyridine]
Emax [1]: 24% | EC50 [2]: 641 nM

CCCC(=O)Nc1cncc(-c2ccc3[nH]nc(-c4nc5c(-c6ccsc6)cncc5[nH]4)c3n2)c1 [Compound 269, N-(5-(3-(7-(Thiophen-3-yl)-3H-imidazo[4,5-c]pyridin-2-yl)-1H-pyrazolo[4,3-b]pyridin-5-yl)pyridin-3-yl)butyramide]
Emax [1]: 58% | EC50 [1]: 21 nM | EC50 [2]: 3720 nM

c1cc(-c2cncc3[nH]c(-c4n[nH]c5ccc(-c6cncc(CNCC7CCCC7)c6)nc45)nc23)co1 [Compound 305, 1-Cyclopentyl-N-((5-(3-(7-(furan-3-yl)-3H-imidazo[4,5-c]pyridin-2-yl)-1H-pyrazolo[4,3-b]pyridin-5-yl)pyridin-3-yl)methyl)methanamine]
EC50 [2]: 8610 nM

O=C(CC1CCNCC1)Nc1cncc(-c2ccc3[nH]nc(-c4nc5c(-c6ccccn6)cncc5[nH]4)c3n2)c1 [Compound 565, 2-(Piperidin-4-yl)-N-(5-(3-(7-(pyridin-2-yl)-3H-imidazo[4,5-c]pyridin-2-yl)-1H-pyrazolo[4,3-b]pyridin-5-yl)pyridin-3-yl)acetamide]
inhibition at 10 µM [2]: 44.2% | EC50 [2]: > 10000 nM

c1ncc(-c2ccc3[nH]nc(-c4nc5c(N6CCCCC6)cncc5[nH]4)c3n2)cc1OCCN1CCCC1 [Compound 582, 3-(7-(Piperidin-1-yl)-3H-imidazo[4,5-c]pyridin-2-yl)-5-(5-(2-(pyrrolidin-1-yl)ethoxy)pyridin-3-yl)-1H-pyrazolo[4,3-b]pyridine]
inhibition at 10 µM [2]: 6.6% | EC50 [2]: > 10000 nM

Oc1cncc(-c2ccc3[nH]nc(-c4nc5c(N6CCCCC6)cncc5[nH]4)c3n2)c1 [Compound 585, 5-(3-(7-(Piperidin-1-yl)-3H-imidazo[4,5-c]pyridin-2-yl)-1H-pyrazolo[4,3-b]pyridin-5-yl)pyridin-3-ol]
inhibition at 10 µM [2]: 4.3% | EC50 [2]: > 10000 nM

Cc1cn(-c2cncc3[nH]c(-c4n[nH]c5ccc(C6=CCNCC6)nc45)nc23)cn1 [Compound 590, 3-(7-(4-Methyl-1H-imidazol-1-yl)-3H-imidazo[4,5-c]pyridin-2-yl)-5-(1,2,3,6-tetrahydropyridin-4-yl)-1H-pyrazolo[4,3-b]pyridine]
inhibition at 10 µM [2]: 6.8% | EC50 [2]: > 10000 nM

Cc1cn(-c2cncc3[nH]c(-c4n[nH]c5ccc(-c6cncc(OCCN(C)C)c6)nc45)nc23)cn1 [Compound 599, N,N-Dimethyl-2-((5-(3-(7-(4-methyl-1H-imidazol-1-yl)-3H-imidazo[4,5-c]pyridin-2-yl)-1H-pyrazolo[4,3-b]pyridin-5-yl)pyridin-3-yl)oxy)ethan-1-amine]
inhibition at 10 µM [2]: 6.3% | EC50 [2]: > 10000 nM

CN1CCN(c2cncc3[nH]c(-c4n[nH]c5ccc(-c6cnccn6)nc45)nc23)CC1 [Compound 620, 3-(7-(4-Methylpiperazin-1-yl)-3H-imidazo[4,5-c]pyridin-2-yl)-5-(pyrazin-2-yl)-1H-pyrazolo[4,3-b]pyridine]
inhibition at 10 µM [2]: 5.8% | EC50 [2]: > 10000 nM

O=C(CC1CCNCC1)Nc1cncc(-c2ccc3[nH]nc(-c4nc5c(-c6ccsc6)cncc5[nH]4)c3n2)c1 [Compound 629, 2-(Piperidin-4-yl)-N-(5-(3-(7-(thiophen-3-yl)-3H-imidazo[4,5-c]pyridin-2-yl)-1H-pyrazolo[4,3-b]pyridin-5-yl)pyridin-3-yl)acetamide]
inhibition at 10 µM [2]: 30.6% | EC50 [2]: > 10000 nM

Cc1ncc(-c2ccc3[nH]nc(-c4nc5c(-c6ccoc6)cncc5[nH]4)c3n2)n1C [Compound 641, 5-(1,2-Dimethyl-1H-imidazol-5-yl)-3-(7-(furan-3-yl)-3H-imidazo[4,5-c]pyridin-2-yl)-1H-pyrazolo[4,3-b]pyridine]
EC50 [2]: 911 nM
